Laboratory results taken from US20250101041A1, “POSITIVE ALLOSTERIC MODULATORS OF THE MUSCARINIC ACETYLCHOLINE RECEPTOR M4” (Vanderbilt University, priority 2022, published 2025).

Biological target: T1, human mAChR M4 (Homo sapiens, UniProt P08173)
T1 construct: expressed in transfected cells; host or cells: CHO-K1 (American Type Culture Collection), stably expressing hM4 and Gqi5
T1 sequence (P08173 1-479): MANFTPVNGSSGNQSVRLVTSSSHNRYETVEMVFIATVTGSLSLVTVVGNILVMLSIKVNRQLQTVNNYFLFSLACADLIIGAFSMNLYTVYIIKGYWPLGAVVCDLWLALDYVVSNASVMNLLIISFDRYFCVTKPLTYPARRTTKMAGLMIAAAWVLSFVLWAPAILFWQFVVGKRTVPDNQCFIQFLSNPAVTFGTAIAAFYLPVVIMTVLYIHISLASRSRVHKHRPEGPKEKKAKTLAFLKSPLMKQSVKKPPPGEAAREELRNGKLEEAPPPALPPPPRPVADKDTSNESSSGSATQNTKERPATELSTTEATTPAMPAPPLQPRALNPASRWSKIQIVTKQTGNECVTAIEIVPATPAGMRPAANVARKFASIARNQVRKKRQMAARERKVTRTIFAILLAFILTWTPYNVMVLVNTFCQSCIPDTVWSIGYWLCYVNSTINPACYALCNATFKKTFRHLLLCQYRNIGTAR
Assay: mAChR M4 cell-based functional assay: calcium mobilization (Fluo-4, FDSS), potentiation of EC20 acetylcholine response in hM4-Gqi5 CHO-K1 cells
Conditions: human M4; for Emax at 30 µM: CHO-K1, % ACh maximum at 30 μM; for EC50: potentiation of EC20 acetylcholine response, calcium mobilization
Procedure, shortened: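 CHO-K1 cells stably co-expressing human M4 and chimeric Gqi5, loaded with Fluo-4 AM (50 min, 37 °C). Compounds in 11-point 1:3 series added first; EC20 acetylcholine added at 144 s and again at 230 s. Calcium read on FDSS at 1 Hz; EC50 and Emax from four-parameter logistic fit of potentiated EC20 response.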

Cc1cc2nccc(=O)n2nc1N1CCc2ncc(NCC3CC3)cc2C1 [Compound 2-89, 7-(3-((cyclopropylmethyl)amino)-7,8-dihydro-1,6-naphthyridin-6(5H)-yl)-8-methyl-4H-pyrimido[1,2-b]pyridazin-4-one]
Emax at 30 µM: 93% | EC50: 332 nM

Cc1cc2nccc(=O)n2nc1N1CCc2ncc(NCC(C)C)cc2C1 [Compound 2-90, 7-(3-(isobutylamino)-7,8-dihydro-1,6-naphthyridin-6(5H)-yl)-8-methyl-4H-pyrimido[1,2-b]pyridazin-4-one]
Emax at 30 µM: 69% | EC50: 798 nM

Cc1cc2nccc(=O)n2nc1N1CCc2ncc(NCC3CCOCC3)cc2C1 [Compound 2-91, 8-methyl-7-(3-(((tetrahydro-2H-pyran-4-yl)methyl)amino)-7,8-dihydro-1,6-naphthyridin-6(5H)-yl)-4H-pyrimido[1,2-b]pyridazin-4-one]
Emax at 30 µM: 80% | EC50: 1820 nM

CCN(CC)c1cnc2c(c1)CN(c1nn3c(=O)ccnc3cc1C)CC2 [Compound 2-92, 7-(3-(diethylamino)-7,8-dihydro-1,6-naphthyridin-6(5H)-yl)-8-methyl-4H-pyrimido[1,2-b]pyridazin-4-one]
Emax at 30 µM: 70% | EC50: 863 nM

Cc1cc2nccc(=O)n2nc1N1CCc2ncc(N3CCOC(c4ccncc4)C3)cc2C1 (stereo not shown) [Compound 2-93, 8-methyl-7-(3-(2-(pyridin-4-yl)morpholino)-7,8-dihydro-1,6-naphthyridin-6(5H)-yl)-4H-pyrimido[1,2-b]pyridazin-4-one]
Emax at 30 µM: 75% | EC50: 1170 nM

Cc1cc2nccc(=O)n2nc1N1CCc2ncc(Nc3cccc(F)c3C)cc2C1 [Compound 2-94, 7-(3-((3-fluoro-2-methylphenyl)amino)-7,8-dihydro-1,6-naphthyridin-6(5H)-yl)-8-methyl-4H-pyrimido[1,2-b]pyridazin-4-one]
Emax at 30 µM: 84% | EC50: 78 nM

COc1ccc(C2CN(c3cnc4c(c3)CN(c3nn5c(=O)ccnc5cc3C)CC4)CCO2)cc1 (stereo not shown) [Compound 2-95, 7-(3-(2-(4-methoxyphenyl)morpholino)-7,8-dihydro-1,6-naphthyridin-6(5H)-yl)-8-methyl-4H-pyrimido[1,2-b]pyridazin-4-one]
Emax at 30 µM: 64% | EC50: 814 nM

Cc1cc2nccc(=O)n2nc1N1CCc2ncc(Nc3ccncc3)cc2C1 [Compound 2-97, 8-methyl-7-(3-(pyridin-4-ylamino)-7,8-dihydro-1,6-naphthyridin-6(5H)-yl)-4H-pyrimido[1,2-b]pyridazin-4-one]
Emax at 30 µM: 96% | EC50: 92 nM

Cc1cc2nccc(=O)n2nc1N1CCc2ncc(Nc3ccccc3F)cc2C1 [Compound 2-98, 7-(3-((2-fluorophenyl)amino)-7,8-dihydro-1,6-naphthyridin-6(5H)-yl)-8-methyl-4H-pyrimido[1,2-b]pyridazin-4-one]
Emax at 30 µM: 90% | EC50: 19 nM

Cc1cc2nccc(=O)n2nc1N1CCc2ncc(N3CCOC(Cc4ccccc4)C3)cc2C1 (stereo not shown) [Compound 2-99, 7-(3-(2-benzylmorpholino)-7,8-dihydro-1,6-naphthyridin-6(5H)-yl)-8-methyl-4H-pyrimido[1,2-b]pyridazin-4-one]
Emax at 30 µM: 66% | EC50: 416 nM

Cc1cc2nccc(=O)n2nc1N1CCc2ncc(Nc3cc(F)nc(F)c3)cc2C1 [Compound 2-100, 7-(3-((2,6-difluoropyridin-4-yl)amino)-7,8-dihydro-1,6-naphthyridin-6(5H)-yl)-8-methyl-4H-pyrimido[1,2-b]pyridazin-4-one]
Emax at 30 µM: 101% | EC50: 39 nM

Cc1cc2nccc(=O)n2nc1N1CCc2ncc(Nc3ccc(C(C)C)nc3)cc2C1 [Compound 2-101, 7-(3-((6-isopropylpyridin-3-yl)amino)-7,8-dihydro-1,6-naphthyridin-6(5H)-yl)-8-methyl-4H-pyrimido[1,2-b]pyridazin-4-one]
Emax at 30 µM: 65% | EC50: 527 nM

Cc1cnccc1Nc1cnc2c(c1)CN(c1nn3c(=O)ccnc3cc1C)CC2 [Compound 2-102, 8-methyl-7-(3-((3-methylpyridin-4-yl)amino)-7,8-dihydro-1,6-naphthyridin-6(5H)-yl)-4H-pyrimido[1,2-b]pyridazin-4-one]
Emax at 30 µM: 84% | EC50: 585 nM

Cc1cc2nccc(=O)n2nc1N1CCc2ncc(N3CCCc4cc(F)ccc43)cc2C1 [Compound 2-103, 7-(3-(6-fluoro-3,4-dihydroquinolin-1(2H)-yl)-7,8-dihydro-1,6-naphthyridin-6(5H)-yl)-8-methyl-4H-pyrimido[1,2-b]pyridazin-4-one]
Emax at 30 µM: 89% | EC50: 33 nM

Cc1cc2nccc(=O)n2nc1N1CCc2ncc(Nc3cc(F)cc(C#N)c3)cc2C1 [Compound 2-104, 3-fluoro-5-((6-(8-methyl-4-oxo-4H-pyrimido[1,2-b]pyridazin-7-yl)-5,6,7,8-tetrahydro-1,6-naphthyridin-3-yl)amino)benzonitrile]
Emax at 30 µM: 85% | EC50: 46 nM

Cc1cc2nccc(=O)n2nc1N1CCc2ncc(Nc3cc(F)cc(F)c3)cc2C1 [Compound 2-105, 7-(3-((3,5-difluorophenyl)amino)-7,8-dihydro-1,6-naphthyridin-6(5H)-yl)-8-methyl-4H-pyrimido[1,2-b]pyridazin-4-one]
Emax at 30 µM: 88% | EC50: 19 nM

Cc1cc2nccc(=O)n2nc1N1CCc2ncc(Nc3cccc(F)c3F)cc2C1 [Compound 2-106, 7-(3-((2,3-difluorophenyl)amino)-7,8-dihydro-1,6-naphthyridin-6(5H)-yl)-8-methyl-4H-pyrimido[1,2-b]pyridazin-4-one]
Emax at 30 µM: 84% | EC50: 32 nM

Cc1cc2nccc(=O)n2nc1N1CCc2ncc(Nc3cccc(F)n3)cc2C1 [Compound 2-107, 7-(3-((6-fluoropyridin-2-yl)amino)-7,8-dihydro-1,6-naphthyridin-6(5H)-yl)-8-methyl-4H-pyrimido[1,2-b]pyridazin-4-one]
Emax at 30 µM: 79% | EC50: 437 nM

Cc1cc2nccc(=O)n2nc1N1CCc2ncc(NC(=O)C3CC3)cc2C1 [Compound 2-108, N-(6-(8-methyl-4-oxo-4H-pyrimido[1,2-b]pyridazin-7-yl)-5,6,7,8-tetrahydro-1,6-naphthyridin-3-yl)cyclopropanecarboxamide]
Emax at 30 µM: 56% | EC50: 1650 nM

Cc1cc2nccc(=O)n2nc1N1CCc2ncc(NC(=O)C3COC3)cc2C1 [Compound 2-109, N-(6-(8-methyl-4-oxo-4H-pyrimido[1,2-b]pyridazin-7-yl)-5,6,7,8-tetrahydro-1,6-naphthyridin-3-yl)oxetane-3-carboxamide]
Emax at 30 µM: 30%

Cc1cc2nccc(=O)n2nc1N1CCc2ncc(NC(=O)C3CCOCC3)cc2C1 [Compound 2-110, N-(6-(8-methyl-4-oxo-4H-pyrimido[1,2-b]pyridazin-7-yl)-5,6,7,8-tetrahydro-1,6-naphthyridin-3-yl)tetrahydro-2H-pyran-4-carboxamide]
Emax at 30 µM: 47% | EC50: 2200 nM

Cc1cc2nccc(=O)n2nc1N1CCc2ncc(Nc3ccncc3F)cc2C1 [Compound 2-111, 7-(3-((3-fluoropyridin-4-yl)amino)-7,8-dihydro-1,6-naphthyridin-6(5H)-yl)-8-methyl-4H-pyrimido[1,2-b]pyridazin-4-one]
Emax at 30 µM: 98% | EC50: 11 nM
